Experimental data: ChEMBL document CHEMBL5674860, “Optimized Dual-Glo Assay to identify co-culture-induced drug vulnerabilities in 3D CRC models” (2024)

Tests used:
Assay type in all cases: functional, Homo sapiens
Parameters in all cases: dose or concentration left out as unconfirmed
Colon cancer organoid [1] = experiment: Optimized Dual-Glo assay to identify co-culture induced drug vulnerabilities using donated chemical probes and chemogenomics kinase set in O14 CRC organoid and F14 CAF mono and co-culture. […] Cell viability is reported both mono and co-culture models.
Colon cancer organoid [2] = experiment: Optimized Dual-Glo assay to identify co-culture induced drug vulnerabilities using donated chemical probes and chemogenomics kinase set in O20 CRC organoid and F20 CAF mono and co-culture. […] Cell viability is reported both mono and co-culture models.
Colon cancer organoid [3] = experiment: Optimized Dual-Glo assay to identify co-culture induced drug vulnerabilities using donated chemical probes and chemogenomics kinase set in O06 CRC organoid and F06 CAF mono and co-culture. […] Cell viability is reported both mono and co-culture models.
[4] = Culture type Co-Culture, Transduced with Lucferase2-P2A-EGFP lentivirus
[5] = Culture type Co-Culture, Transduced with Renilla-dsRed lentivirus
[6] = Culture type Mono-Culture, Transduced with Lucferase2-P2A-EGFP lentivirus
[7] = Culture type Mono-Culture, Transduced with Renilla-dsRed lentivirus

Compound	Cell Viability (Colon cancer organoid [1]; [4])	Cell Viability (Colon cancer organoid [1]; [5])	Cell Viability (Colon cancer organoid [1]; [6])	Cell Viability (Colon cancer organoid [1]; [7])	Cell Viability (Colon cancer organoid [2]; [4])	Cell Viability (Colon cancer organoid [2]; [5])	Cell Viability (Colon cancer organoid [2]; [6])	Cell Viability (Colon cancer organoid [2]; [7])	Cell Viability (Colon cancer organoid [3]; [4])	Cell Viability (Colon cancer organoid [3]; [5])	Cell Viability (Colon cancer organoid [3]; [6])	Cell Viability (Colon cancer organoid [3]; [7])
CN(C)C(=O)c1cc2cnc(Nc3ccc(N4CCNCC4)cn3)nc2n1C1CCCC1 [RIBOCICLIB]	59.6816%	144.098%	62.61%	96.4403%	36.9577%	144.514%	20.5669%	95.5583%	54.2961%	126.231%	30.4641%	111.56%
O=C(CCCCCCNC(=O)c1cnc(N(c2ccccc2)c2ccccc2)nc1)NO [RICOLINOSTAT]	162.049%	119.991%	164.32%	101.457%	158.742%	130.22%	89.6658%	107.525%	80.064%	143.43%	66.4985%	158.366%
C=CC(=O)Nc1ccc2[nH]c(=O)n(C3CCN(Cc4ccc(-c5ccc6c(c5)NC(=O)CO6)cc4)CC3)c2c1 [RL2578]	109.086%	76.9187%	101.444%	81.1144%	101.172%	98.7435%	76.3776%	83.481%	88.4189%	104.707%	87.6184%	83.8435%
CN(C)CCOc1ccc(-c2nc(-c3ccncc3)c(-c3ccc4c(c3)CC/C4=N\O)[nH]2)cc1 [SB590885]	125.618%	131.894%	138.834%	91.3736%	155.192%	68.1541%	66.5679%	111.294%	79.2379%	96.48%	138.873%	135.694%
CC[C@H](CO)Nc1nc(NCc2ccccc2)c2ncn(C(C)C)c2n1 [SELICICLIB]	135.109%	107.454%	106.101%	84.912%	126.322%	75.3934%	94.0529%	97.9285%	93.234%	112.199%	108.084%	105.93%
C[C@@H]1CCc2ncc(F)cc2[C@H]2CCCN2c2ccn3ncc(c3n2)C(=O)N1 [SELITRECTINIB]	80.4223%	107.034%	125.619%	100.351%	166.265%	73.3915%	102.231%	92.0834%	101.733%	118.761%	174.799%	120.583%
Cc1cc(F)c(C(=O)Nc2cccc(-c3nncn3C(C)C)n2)cc1-n1cnc(C2CC2)c1 [SELONSERTIB]	131.466%	127.666%	127.2%	83.0493%	141.674%	89.2485%	97.5113%	87.9562%	89.6649%	105.018%	105.834%	92.1767%
Cn1cnc2c(F)c(Nc3ccc(Br)cc3Cl)c(C(=O)NOCCO)cc21 [SELUMETINIB]	41.0506%	90.7653%	35.0637%	76.2393%	54.0546%	152.417%	80.7355%	77.3788%	107.697%	90.3962%	52.8036%	90.0191%
O=C(O)c1ccc2c(c1)nc(Nc1cccc(Cl)c1)c1ccncc12 [SILMITASERTIB]	93.7278%	109.514%	89.7197%	119.06%	158.738%	81.7658%	95.6239%	79.8512%	108.166%	80.6873%	78.7074%	100.788%
N#Cc1cnc(Nc2cc(NC[C@H]3CNCCO3)c(C(F)(F)F)cn2)cn1 [SRA-737]	41.9223%	191.286%	52.6101%	101.86%	103.278%	133.202%	58.7772%	96.135%	89.9461%	120.027%	70.513%	117.124%
O=C1c2ccc(Nc3ccc(F)cc3F)cc2CCc2ccc(OC[C@H](O)CO)cc21 [Skepinone-L]	150.905%	93.4936%	165.429%	90.897%	88.3042%	86.6611%	113.922%	95.9781%	115.343%	88.0925%	155.18%	90.6486%
CN1CCN(C(=O)C(C)(C)c2ccc(C(=O)Nc3cn4cc(-c5cc(C(C)(C)C)cc(C(C)(C)C)c5)ccc4n3)cc2)CC1 [T3-CLK-N]	129.357%	95.6255%	93.4655%	83.9103%	83.0148%	112.725%	124.688%	67.9916%	119.67%	85.6501%	109.915%	85.7063%
CN1CCN(C(=O)C(C)(C)c2ccc(C(=O)Nc3cn4cc(-c5ccncc5)ccc4n3)cc2)CC1 [T3-CLK]	26.2693%	164.302%	35.9707%	93.5791%	17.3495%	291.942%	28.5908%	98.0167%	42.8408%	189.116%	24.3767%	109.981%
COc1cccc(CNC(=O)c2nc3scc(CN(C)Cc4ccccc4)c3c(=O)[nH]2)c1 [T-26f]	86.5179%	95.8142%	82.3734%	95.7877%	156.545%	109.586%	116.769%	103.534%	114.676%	151.389%	102.721%	101.465%
